Laboratory results taken from the supplement of paper PMC10307832.

Legend:
Assay in all cases: relative viability (nuclei count vs DMSO), 5 days (fraction); higher = more cells survive
Ibrutinib + OSI-027 = compound: C=CC(=O)N1CCC[C@@H](n2nc(-c3ccc(Oc4ccccc4)cc3)c3c(N)ncnc32)C1 [Ibrutinib] + COc1cccc2cc(-c3nc([C@H]4CC[C@H](C(=O)O)CC4)n4ncnc(N)c34)[nH]c12 [OSI-027] (partner 0.5 µM)
Summary of the method: (§1)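 Five library-drug doses in √10 steps were combined with a fixed anchor-drug dose, or a single drug was given alone, by pin tool to lung cancer cell lines in 1536-well plates the day after seeding. Nuclei were stained and counted after 5 days. Relative viability is the nuclei count in treated wells over that in vehicle wells, taken as the median of duplicate plates.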

Ibrutinib + Decitabine = compound: C=CC(=O)N1CCC[C@@H](n2nc(-c3ccc(Oc4ccccc4)cc3)c3c(N)ncnc32)C1 [Ibrutinib] + Nc1ncn([C@H]2C[C@H](O)[C@@H](CO)O2)c(=O)n1 [Decitabine] (partner 2 µM)
Summary of the method: as §1

BMX-IN-1 + Navitoclax = compound: C=CC(=O)Nc1cc(-n2c(=O)ccc3cnc4ccc(-c5ccc(NS(C)(=O)=O)cc5)cc4c32)ccc1C [BMX-IN-1] + CC1(C)CCC(c2ccc(Cl)cc2)=C(CN2CCN(c3ccc(C(=O)NS(=O)(=O)c4ccc(N[C@H](CCN5CCOCC5)CSc5ccccc5)c(S(=O)(=O)C(F)(F)F)c4)cc3)CC2)C1 [Navitoclax] (partner 0.5 µM)
Summary of the method: as §1

BMX-IN-1 + AZD7762 = compound: C=CC(=O)Nc1cc(-n2c(=O)ccc3cnc4ccc(-c5ccc(NS(C)(=O)=O)cc5)cc4c32)ccc1C [BMX-IN-1] + NC(=O)Nc1cc(-c2cccc(F)c2)sc1C(=O)N[C@H]1CCCNC1 [AZD7762] (partner 0.2 µM)
Summary of the method: as §1

| Cell Line | relative viability (Ibrutinib + OSI-027; first compound 0.005 µM) | relative viability (Ibrutinib + OSI-027; first compound 0.01581 µM) | relative viability (Ibrutinib + OSI-027; first compound 0.05 µM) | relative viability (Ibrutinib + OSI-027; first compound 0.1581 µM) | relative viability (Ibrutinib + OSI-027; first compound 0.5 µM) | relative viability (Ibrutinib + Decitabine; first compound 0.005 µM) | relative viability (Ibrutinib + Decitabine; first compound 0.01581 µM) | relative viability (Ibrutinib + Decitabine; first compound 0.05 µM) | relative viability (Ibrutinib + Decitabine; first compound 0.1581 µM) | relative viability (Ibrutinib + Decitabine; first compound 0.5 µM) | relative viability (BMX-IN-1 + Navitoclax; first compound 0.02 µM) | relative viability (BMX-IN-1 + Navitoclax; first compound 0.2 µM) | relative viability (BMX-IN-1 + Navitoclax; first compound 0.6325 µM) | relative viability (BMX-IN-1 + Navitoclax; first compound 2 µM) | relative viability (BMX-IN-1 + AZD7762; first compound 0.02 µM) | relative viability (BMX-IN-1 + AZD7762; first compound 0.2 µM) | relative viability (BMX-IN-1 + AZD7762; first compound 0.6325 µM) | relative viability (BMX-IN-1 + AZD7762; first compound 2 µM) |
| --- | --- | --- | --- | --- | --- | --- | --- | --- | --- | --- | --- | --- | --- | --- | --- | --- | --- | --- |
| 201T | 0.758 | 0.665 | 0.882 | 0.608 | 0.762 | 0.827 | 0.842 | 0.881 | 0.83 | 0.799 | 1.14 | 1.21 | 1.18 | 1.2 | 0.728 | 0.63 | 0.662 | 0.56 |
| A549 | – | – | – | – | – | 0.249 | 0.243 | 0.311 | 0.225 | 0.186 | 1.5 | 1.44 | 1.37 | 1.17 | – | – | – | – |
| A-427 | 0.36 | 0.431 | 0.512 | 0.369 | 0.499 | 0.59 | 0.574 | 0.576 | – | 0.549 | 1.04 | 0.987 | 0.971 | 1.01 | 0.796 | 1.14 | 0.84 | 0.806 |
| ABC-1 | 0.331 | 0.457 | 0.479 | 0.441 | 0.547 | 0.973 | 0.929 | – | – | 1.19 | – | – | – | – | 0.761 | 0.848 | 0.82 | 0.868 |
| BEN | – | 0.3 | 0.288 | – | 0.298 | 0.454 | 0.817 | 0.687 | 0.521 | 0.646 | 0.066 | 0.0691 | 0.224 | 0.0676 | 0.747 | 0.706 | 0.69 | 0.707 |
| CAL-12T | 0.369 | 0.579 | 0.601 | 0.569 | 0.562 | – | – | – | – | – | 1.28 | 1.21 | 1.22 | 1.24 | 0.665 | 0.76 | 0.647 | 0.613 |
| COR-L23 | 0.644 | 0.731 | 0.762 | 0.875 | 0.882 | 0.428 | 0.433 | 0.473 | 0.461 | 0.525 | 1.52 | 1.46 | 1.14 | 1.02 | – | – | – | – |
| COR-L 105 | 0.393 | 0.467 | 0.389 | 0.609 | 0.31 | 0.632 | 0.534 | 0.431 | 0.689 | 0.403 | 0.756 | 0.779 | 0.875 | 0.709 | – | – | – | – |
| Calu-6 | – | – | – | – | – | – | – | – | – | – | 1.08 | 1.06 | 0.902 | 0.823 | – | – | – | – |
| ChaGo-K-1 | 0.582 | 0.521 | 0.482 | 0.414 | 0.63 | 0.503 | 0.484 | 0.544 | 0.524 | 0.54 | 0.937 | 0.988 | 1.27 | 0.531 | 1.02 | 1.02 | 0.885 | 0.907 |
| EBC-1 | – | – | – | – | – | – | – | – | – | – | 0.425 | 0.341 | 0.434 | 0.329 | – | – | – | – |
| EKVX | 0.644 | 0.663 | 0.763 | 0.737 | 0.511 | 0.281 | 0.247 | 0.421 | 0.315 | 0.226 | 0.979 | 1.13 | 0.966 | 1 | 1.02 | 0.81 | 0.843 | 0.723 |
| EMC-BAC-2 | 0.33 | 0.352 | 0.403 | 0.426 | 0.405 | 0.91 | 0.962 | – | – | 0.994 | 1.41 | 1.35 | 1.08 | 1.19 | 1.32 | 1.31 | 1.1 | 1.14 |
| EPLC-272H | 0.246 | 0.255 | 0.219 | 0.242 | 0.208 | – | 0.318 | 0.327 | 0.381 | 0.275 | 1.25 | 1.22 | 1.08 | 1.18 | 0.231 | 0.217 | 0.476 | 0.202 |
| H3255 | 0.459 | 0.547 | 0.623 | 0.654 | 0.406 | 0.575 | 0.532 | – | 0.636 | 0.261 | 0.51 | 0.595 | 0.544 | 0.633 | 0.93 | 0.866 | 1.05 | 0.874 |
| HARA | 0.303 | 0.437 | 0.297 | 0.38 | 0.247 | 0.5 | 0.486 | 0.376 | 0.468 | 0.264 | 1.22 | 1.36 | 1.09 | 1.08 | 0.47 | 0.454 | 0.26 | 0.322 |
| HCC-15 | 0.654 | 0.595 | 0.689 | 0.403 | 0.757 | 0.711 | 0.57 | 0.661 | 0.581 | 0.662 | 0.768 | 0.726 | 0.706 | 0.73 | 0.591 | 1.24 | 1.35 | 1.29 |
| HCC-44 | 0.44 | 0.517 | 0.585 | – | 0.669 | 1 | 0.96 | 1 | 0.976 | 0.988 | 1.25 | 1.16 | 1.13 | 0.989 | 0.989 | 0.941 | 1.01 | 1.11 |
| HCC-78 | 0.309 | 0.362 | 0.36 | 0.355 | 0.308 | – | 0.824 | 0.677 | 0.543 | 0.702 | 0.859 | 0.851 | 1 | 0.863 | 0.662 | 0.64 | 0.587 | 0.726 |
| HCC-366 | 0.803 | 0.84 | 0.934 | 0.802 | 0.96 | 0.422 | 0.305 | 0.314 | 0.346 | 0.326 | 1.54 | 1.29 | 1.15 | 1.05 | 0.38 | 0.417 | 0.416 | 0.343 |
| HCC-827 | 0.727 | 0.67 | 0.648 | 0.783 | 0.45 | 0.275 | 0.345 | 0.262 | 0.287 | 0.195 | 1.02 | 0.992 | 1 | 1.03 | 0.217 | 0.207 | 0.251 | 0.194 |
